This is an account of results in patent US12129237B2, “Substituted diaminocarboxamide and diaminocarbonitrile pyrimidines, compositions thereof, and methods of treatment therewith” (SIGNAL PHARMACEUTICALS, LLC, priority 2011, dated 2024).

Structures are written as SMILES. Where only a bound is given, the exact number is not on record here.

The target in the first experiment is T1, JNK1 (Homo sapiens, UniProt P45983).
T1 construct: purchased Carna Biosciences
T1 sequence (P45983 whole entry): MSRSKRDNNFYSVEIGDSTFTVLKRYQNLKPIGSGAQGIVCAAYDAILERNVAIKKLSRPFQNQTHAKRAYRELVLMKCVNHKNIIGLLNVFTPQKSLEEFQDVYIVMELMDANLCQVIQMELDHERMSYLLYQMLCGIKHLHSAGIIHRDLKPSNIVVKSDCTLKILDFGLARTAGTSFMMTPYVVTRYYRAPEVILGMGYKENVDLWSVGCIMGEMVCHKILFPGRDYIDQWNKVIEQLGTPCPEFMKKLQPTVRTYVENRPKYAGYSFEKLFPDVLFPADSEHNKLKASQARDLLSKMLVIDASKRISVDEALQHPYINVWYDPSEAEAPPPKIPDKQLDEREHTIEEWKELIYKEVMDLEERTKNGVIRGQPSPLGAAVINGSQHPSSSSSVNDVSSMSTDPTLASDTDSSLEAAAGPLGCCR
The experiment in a line: JNK1 biochemical assays (one or more of: time resolved fluorescence, Z'-LYTE Cascade, radioactive). The conditions noted are these: Table 2; JNK1 IC50 activity level; read-out: Act. Level.
Regarding `COc1ccc(NC(C)=O)cc1Nc1ncc(C(N)=O)c(Nc2ccccc2)n1` [Example B-32, 2-(5-acetamido-2-methoxyphenylamino)-4-(phenylamino)pyrimidine-5-carboxamide], the IC50 is 200 to 800 nM.
Still for that read-out and setting: as for `N#Cc1cnc(NC2CCCCC2)nc1Nc1ccccc1` [Example B-86, 2-(cyclohexylamino)-4-(phenylamino)pyrimidine-5-carbonitrile], the figure is 1000 to 10000 nM.

Staying with this experiment, now noted: Table 3; JNK1 IC50 activity level; read-out: Act. Level.
In the case of `C[C@@H]1CC[C@@H](Nc2nc(N[C@H]3CC[C@H](OCC(F)(F)F)CC3)ncc2C#N)C[C@H]1O` [Example C-49], the IC50 is less than 200 nM.
The same measure, in the same setting: as for `CCO[C@H]1CC[C@H](Nc2ncc(C#N)c(N[C@@H]3CCCOC3)n2)CC1` [Example C-26, 2-((1r,4R)-4-ethoxycyclohexylamino)-4-((R)-tetrahydro-2H-pyran-3-ylamino)pyrimidine-5-carbonitrile], the figure is 200 to 800 nM.
`N#Cc1cnc(N[C@H]2CC[C@H](OCC(F)(F)F)CC2)nc1N[C@@H]1CCC[C@H](O)C1` [Example C-14, 4-((1R,3S)-3-hydroxycyclohexylamino)-2-((1r,4R)-4-(2,2,2-trifluoroethoxy)cyclohexylamino) pyrimidine-5-carbonitril]: the IC50 was less than 200 nM.
Turning to `CN(C)C(=O)[C@H]1CC[C@H](Nc2ncc(C#N)c(N[C@@H]3CCC[C@H](O)C3)n2)CC1` [Example C-9, (1R,4r)-4-(5-cyano-4-((1R,3S)-3-hydroxycyclohexylamino)pyrimidin-2-ylamino)-N,N-dimethylcyclohexanecarboxamide], the IC50 was less than 200 nM.

Staying with this experiment, now noted: one or more of the JNK1 biochemical assays; read-out: Act. Level (JNK1 IC50 activity level).
As to `CC(C)(Nc1nc(N[C@H]2CCC[C@H](O)C2)ncc1C(N)=O)C1CC1` [Example 456, 4-(2-cyclopropylpropan-2-ylamino)-2-((1S,3S)-3-hydroxycyclohexylamino)pyrimidine-5-carboxamide], the IC50 was less than 200 nM.
On to `CCC1(Nc2nc(N[C@H]3CC[C@H](O)CC3)ncc2C(N)=O)CCCC1` [Example 455, 4-(1-ethylcyclopentylamino)-2-((1r,4r)-4-hydroxycyclohexylamino)pyrimidine-5-carboxamide], for which the IC50 was less than 200 nM.
As to `CO[C@H]1CC[C@H](Nc2ncc(C(N)=O)c(NC(C)(C)CO)n2)CC1` [Example 310, 4-(1-hydroxy-2-methylpropan-2-ylamino)-2-((1r,4r)-4-methoxycyclohexylamino)pyrimidine-5-carboxamide], the IC50 was less than 200 nM.
Turning to `C[C@@H]1CC[C@@H](Nc2nc(NC34CC(C(F)(F)F)(C3)C4)ncc2C(N)=O)C[C@H]1O` [Example 441, 4-((1R,3R,4R)-3-hydroxy-4-methylcyclohexylamino)-2-(3-(trifluoromethyl)bicyclo[1.1.1]pentan-1-ylamino)pyrimidine-5-carboxamide], the IC50 is less than 200 nM.
On the same count and under the same terms, as for `C[C@@H]1CC[C@@H](Nc2nc(N[C@@H](C)C(C)(C)C)ncc2C(N)=O)C[C@H]1O` [Example 469, 2-((S)-3,3-dimethylbutan-2-ylamino)-4-((1R,3R,4R)-3-hydroxy-4-methylcyclohexylamino)pyrimidine-5-carboxamide], the figure is less than 200 nM; as for `CCO[C@H]1CC[C@H](Nc2ncc(C(N)=O)c(NC3(CC)CCCCC3)n2)CC1` [Example 478, 2-((1r,4r)-4-ethoxycyclohexylamino)-4-(1-ethylcyclohexylamino)pyrimidine-5-carboxamide], less than 200 nM.
On to `CC1(Nc2ncc(C(N)=O)c(NC3CCC(C)(C)C(O)C3)n2)CC1` (centres unmarked) [Example 430, 4-(3-hydroxy-4,4-dimethylcyclohexylamino)-2-(1-methylcyclopropylamino)pyrimidine-5-carboxamide], for which the IC50 was less than 200 nM.
On the same count and under the same terms, as for `CCO[C@H]1CC[C@H](Nc2ncc(C(N)=O)c(N[C@H](C)C(C)(C)C)n2)CC1` [Example 277, 4-((R)-3,3-dimethylbutan-2-ylamino)-2-((1r,4R)-4-ethoxycyclohexylamino)pyrimidine-5-carboxamide], the figure is less than 200 nM.
Turning to `CC(C)Nc1nc(N[C@@H]2CCC[C@H](O)CC2)ncc1C(N)=O` [Example 234, 2-((1R,4S)-4-hydroxycycloheptylamino)-4-(isopropylamino)pyrimidine-5-carboxamide], the IC50 is less than 200 nM.
Still for that read-out and setting: as for `CC(C)(C)Nc1nc(N[C@H]2CCC[C@H](O)C2)ncc1C(N)=O` [Example 305, 4-(tert-butylamino)-2-((1S,3S)-3-hydroxycyclohexylamino)pyrimidine-5-carboxamide], the figure is less than 200 nM; as for `CCC1(Nc2nc(N[C@H]3CC[C@H](OC)CC3)ncc2C(N)=O)CCCC1` [Example 454, 4-(1-ethylcyclopentylamino)-2-((1r,4r)-4-methoxycyclohexylamino)pyrimidine-5-carboxamide], less than 200 nM.
The same measure, in the same setting: as for `CC(C)Nc1nc(NC2CCOCC2)ncc1C(N)=O` [Example 222, 4-(isopropylamino)-2-(tetrahydro-2H-pyran-4-ylamino)pyrimidine-5-carboxamide], the figure is 200 to 800 nM; as for `NC(=O)c1cnc(N[C@H]2CC[C@H](OC(F)F)CC2)nc1NC1CCC1` [Example 436, 4-(cyclobutylamino)-2-((1r,4r)-4-(difluoromethoxy)cyclohexylamino)pyrimidine-5-carboxamide], less than 200 nM.

The experiment is the same for the next values; noted with them: tested in one or more of the JNK1 biochemical assays; read-out: Act. Level (JNK1 biochemical assay IC50 activity level).
As to `CCO[C@H]1CC[C@H](Nc2ncc(C(N)=O)c(N[C@H]3CCC[C@@H](O)C3)n2)CC1` [Example A-59, 2-((1r,4S)-4-ethoxycyclohexylamino)-4-((1S,3R)-3-hydroxycyclohexylamino)pyrimidine-5-carboxamide], the IC50 is less than 200 nM.
The same measure, in the same setting: as for `CO[C@H]1CC[C@H](Nc2ncc(C(N)=O)c(N[C@H]3CC[C@@](C)(O)CC3)n2)CC1` [Example A-69, 4-((1s,4s)-4-hydroxy-4-methylcyclohexylamino)-2-((1r,4r)-4-methoxycyclohexylamino)pyrimidine-5-carboxamide], the figure is less than 200 nM.
For the compound `CN(C)C(=O)[C@H]1CC[C@@H](Nc2nc(NC3CCOCC3)ncc2C(N)=O)CC1` [Example A-116, 4-((1s,4s)-4-(dimethylcarbamoyl)cyclohexylamino)-2-(tetrahydro-2H-pyran-4-ylamino)pyrimidine-5-carboxamide], the IC50 fell in the range of 200 to 800 nM.
On to `C[C@]1(O)CCC[C@@H](Nc2nc(N[C@H]3CC[C@H](OCC(F)(F)F)CC3)ncc2C(N)=O)C1` [Example A-168, 4-((1R,3S)-3-hydroxy-3-methylcyclohexylamino)-2-((1r,4R)-4-(2,2,2-trifluoroethoxy)cyclohexylamino)pyrimidine-5-carboxamid], for which the IC50 was less than 200 nM.
The same measure, in the same setting: as for `CCO[C@H]1CC[C@H](Nc2ncc(C(N)=O)c(N[C@@H]3CCC(O)C3)n2)CC1` (stereo partly drawn) [Example A-96, 2-((1r,4R)-4-ethoxycyclohexylamino)-4-((1R,3S)-3-hydroxycyclopentylamino)pyrimidine-5-carboxamide], the figure is less than 200 nM; as for `CCO[C@H]1CC[C@H](Nc2ncc(C(N)=O)c(NC3CCC3)n2)CC1` [Example A-197, 4-(cyclobutylamino)-2-((1r,4r)-4-ethoxycyclohexylamino)pyrimidine-5-carboxamide], less than 200 nM.
The same measure, in the same setting: as for `CO[C@H]1CC[C@H](Nc2ncc(C(N)=O)c(NC(C)(C)CCO)n2)CC1` [Example A-35, 4-(4-hydroxy-2-methylbutan-2-ylamino)-2-((1r,4r)-4-methoxycyclohexylamino)pyrimidine-5-carboxamide], the figure is less than 200 nM.
